Experimental findings from patent US10233182B2, “Substituted spirocyclic inhibitors of autotaxin” (X-Rx, Inc., priority 2014, dated 2019) are described below.

The target of this assay is Autotaxin (Homo sapiens (Human), UniProt Q13822). Put plainly: Autotaxin LPC Cascade Assay. The assay is classed as biochemical. Conditions: Autotaxin 5 nM, LPC 100 μM, choline oxidase/HRP/Ampliflu Red fluorescence read-out, 2% DMSO, RT; read-out: IC50 ATX Activity. Here is the method: Autotaxin LPC Cascade Assay:
HA130 and Test Compounds:
Prepare a 1 mM stock of HA130 and a 3 mM stock of each compound in 100% DMSO. Perform a 1:3 serial dilution in DMSO (transfer 5 l of compound to 10 l of DMSO). Add 240 l of buffer to generate a top working concentration of 40 µM (HA130) and 120 µM (test compound) in 4% DMSO.
Ampliflu Red—Prepare a stock of 5 mM from 100 mM in 100% DMSO. Further dilute to a working concentration of 400 μM in buffer (8% DMSO).
Together with compound this yields a 2% DMSO final concentration.
Choline Oxidase/HRP—0.8 U/mL CO and 8 U/mL HRP.
Incubate for 10 mins at RT. Add 5 µl of LPC and incubate for 1 hr on the plate shaker. Prepare the CO/HRP and AR immediately prior to use. Add 2.5 l of CO/HRP and follow with 2.5 l AR. Note order of addition, CO/HRP mix before AR. Read fluorescence intensity (ex/em: 530/590 nm) kinetically for 30 min at RT on the Tecan M1000.
In the case of `CCc1ccc(F)c(C(=O)N[C@@H](C(=O)N2CCC3(CC2)C(=O)N(C)C(=O)N3c2ccc(OC)cc2)[C@@H](C)OC)c1` [Example 40, 5-Ethyl-2-fluoro-N-((2R,3R)-3-methoxy-1-(1-(4-methoxyphenyl)-3-methyl-2,4-dioxo-1,3,8-triazaspiro[4.5]decan-8-yl)-1-oxobutan-2-yl)benzamide], the IC50 is less than 500 nM.
Under `CC[C@@H](C)[C@@H](NC(=O)c1cc(C)cc(F)c1)C(=O)N1CCC2(CC1)C(=O)N(C)C(=O)N2c1ccc(OC)cc1` [Example 41, 3-Fluoro-N-((2R,3R)-1-(1-(4-methoxyphenyl)-3-methyl-2,4-dioxo-1,3,8-triazaspiro[4.5]decan-8-yl)-3-methyl-1-oxopentan-2-yl)-5-methylbenzamide] stands less than 500 nM; under `CC(C)[C@@H](NC(=O)c1cc(C2CC2)ccc1F)C(=O)N1CCC2(CC1)C(=O)N(C)C(=O)N2c1ccccc1` [Example 42, (R)-5-Cyclopropyl-2-fluoro-N-(3-methyl-1-(3-methyl-2,4-dioxo-1-phenyl-1,3,8-triazaspiro[4.5]decan-8-yl)-1-oxobutan-2-yl)benzamide], less than 500 nM; under `CC(C)[C@@H](NC(=O)c1cc(Cl)ccc1F)C(=O)N1CCC2(CC1)C(=O)N(C)C(=O)N2c1ccccc1` [Example 43, (R)-5-Chloro-2-fluoro-N-(3-methyl-1-(3-methyl-2,4-dioxo-1-phenyl-1,3,8-triazaspiro[4.5]decan-8-yl)-1-oxobutan-2-yl)benzamide], less than 500 nM.
As for `CC(C)[C@@H](NC(=O)c1cc(C(F)(F)F)ccc1F)C(=O)N1CCC2(CC1)C(=O)N(C)C(=O)N2c1ccccc1` [Example 44, (R)-2-Fluoro-N-(3-methyl-1-(3-methyl-2,4-dioxo-1-phenyl-1,3,8-triazaspiro[4.5]decan-8-yl)-1-oxobutan-2-yl)-5-(trifluoromethyl)benzamide], the IC50 is less than 500 nM.
Under `COc1ccc(N2C(=O)N(C)C(=O)C23CCN(C(=O)[C@H](NC(=O)c2cc(C4CC4)ccc2F)C(C)C)CC3)cc1` [Example 45, (R)-5-Cyclopropyl-2-fluoro-N-(1-(1-(4-methoxyphenyl)-3-methyl-2,4-dioxo-1,3,8-triazaspiro[4.5]decan-8-yl)-3-methyl-1-oxobutan-2-yl)benzamide] stands less than 500 nM; under `CCc1cccc(C(=O)N[C@@H](C(=O)N2CCC3(CC2)C(=O)N(C)C(=O)N3c2ccccc2)C(C)C)c1` [Example 46, (R)-3-Ethyl-N-(3-methyl-1-(3-methyl-2,4-dioxo-1-phenyl-1,3,8-triazaspiro[4.5]decan-8-yl)-1-oxobutan-2-yl)benzamide], 500 to 1000 nM; under `CCc1cc(F)cc(C(=O)N[C@@H](C(=O)N2CCC3(CC2)C(=O)N(C)C(=O)N3c2ccccc2)C(C)C)c1` [Example 47, (R)-3-Ethyl-5-fluoro-N-(3-methyl-1-(3-methyl-2,4-dioxo-1-phenyl-1,3,8-triazaspiro[4.5]decan-8-yl)-1-oxobutan-2-yl)benzamide], 500 to 1000 nM.
The value for `CC(C)[C@@H](NC(=O)c1cc(Cl)cc(Cl)c1)C(=O)N1CCC2(CC1)C(=O)N(C)C(=O)N2c1ccccc1` [Example 48, (R)-3,5-Dichloro-N-(3-methyl-1-(3-methyl-2,4-dioxo-1-phenyl-1,3,8-triazaspiro[4.5]decan-8-yl)-1-oxobutan-2-yl)benzamide] was less than 500 nM.
Under `COc1ccc(N2C(=O)N(C)C(=O)C23CCN(C(=O)[C@H](NC(=O)c2cc(C4CC4)ccc2F)[C@@H](C)OC)CC3)cc1` [Example 49, 5-Cyclopropyl-2-fluoro-N-((2R,3R)-3-methoxy-1-(1-(4-methoxyphenyl)-3-methyl-2,4-dioxo-1,3,8-triazaspiro[4.5]decan-8-yl)-1-oxobutan-2-yl)benzamide] stands less than 500 nM; under `CCc1ccc(F)c(C(=O)N[C@@H](C(=O)N2CCC3(CC2)C(=O)N(C)C(=O)N3c2ccc(OC)cc2)C(C)C)c1` [Example 50, (R)-5-Ethyl-2-fluoro-N-(1-(1-(4-methoxyphenyl)-3-methyl-2,4-dioxo-1,3,8-triazaspiro[4.5]decan-8-yl)-3-methyl-1-oxobutan-2-yl)benzamide], less than 500 nM; under `COc1ccc(N2C(=O)N(C)C(=O)C23CCN(C(=O)[C@H](NC(=O)c2cc(C(F)(F)F)ccc2F)C(C)C)CC3)cc1` [Example 51, (R)-2-Fluoro-N-(1-(1-(4-methoxyphenyl)-3-methyl-2,4-dioxo-1,3,8-triazaspiro[4.5]decan-8-yl)-3-methyl-1-oxobutan-2-yl)-5-(trifluoromethyl)benzamide], less than 500 nM.
In the case of `CC(C)[C@@H](NC(=O)c1cc(C(F)(F)F)ccc1F)C(=O)N1CCC2(CC1)C(=O)N(C)C(=O)N2c1ccc2[nH]ncc2c1` [Example 52, (R)—N-(1-(1-(1H-indazol-5-yl)-3-methyl-2,4-dioxo-1,3,8-triazaspiro[4.5]decan-8-yl)-3-methyl-1-oxobutan-2-yl)-2-fluoro-5-(trifluoromethyl)benzamide], the IC50 is less than 500 nM.
Under `CC(C)[C@@H](NC(=O)c1cc(C(F)(F)F)ccc1F)C(=O)N1CCC2(CC1)C(=O)N(C)C(=O)N2c1ccc2cn[nH]c2c1` [Example 53, (R)—N-(1-(1-(1H-Indazol-6-yl)-3-methyl-2,4-dioxo-1,3,8-triazaspiro[4.5]decan-8-yl)-3-methyl-1-oxobutan-2-yl)-2-fluoro-5-(trifluoromethyl)benzamide] stands no less than 1000 nM; under `CC(C)[C@@H](NC(=O)c1cc(C2CC2)ccc1F)C(=O)N1CCC2(CC1)C(=O)N(C)C(=O)N2c1ccc2[nH]ncc2c1` [Example 54, (R)—N-(1-(1-(1H-Indazol-5-yl)-3-methyl-2,4-dioxo-1,3,8-triazaspiro[4.5]decan-8-yl)-3-methyl-1-oxobutan-2-yl)-5-cyclopropyl-2-fluorobenzamide], less than 500 nM.
Turning to `CCc1ccc(F)c(C(=O)N[C@@H](C(=O)N2CCC3(CC2)C(=O)N(C)C(=O)N3c2ccc3[nH]ncc3c2)C(C)C)c1` [Example 55, (R)—N-(1-(1-(1H-Indazol-5-yl)-3-methyl-2,4-dioxo-1,3,8-triazaspiro[4.5]decan-8-yl)-3-methyl-1-oxobutan-2-yl)-5-ethyl-2-fluorobenzamide], the IC50 is less than 500 nM.
The value for `Cc1ccc(F)c(C(=O)N[C@@H](C(=O)N2CCC3(CC2)C(=O)N(C)C(=O)N3c2ccc3[nH]ncc3c2)C(C)C)c1` [Example 56, (R)—N-(1-(1-(1H-Indazol-5-yl)-3-methyl-2,4-dioxo-1,3,8-triazaspiro[4.5]decan-8-yl)-3-methyl-1-oxobutan-2-yl)-2-fluoro-5-methylbenzamide] was less than 500 nM; that for `CN1C(=O)N(c2ccc3[nH]ncc3c2)C2(CCN(C(=O)[C@H](NC(=O)c3cc(C(F)(F)F)ccc3F)C3CCCC3)CC2)C1=O` [Example 57, (R)—N-(2-(1-(1H-Indazol-5-yl)-3-methyl-2,4-dioxo-1,3,8-triazaspiro[4.5]decan-8-yl)-1-cyclopentyl-2-oxoethyl)-2-fluoro-5-(trifluoromethyl)benzamide] was less than 500 nM.
The value for `CN1C(=O)N(c2ccc3[nH]ncc3c2)C2(CCN(C(=O)[C@H](NC(=O)c3cc(C(F)(F)F)ccc3F)C3CCC3)CC2)C1=O` [Example 58, (R)—N-(2-(1-(1H-Indazol-5-yl)-3-methyl-2,4-dioxo-1,3,8-triazaspiro[4.5]decan-8-yl)-1-cyclobutyl-2-oxoethyl)-2-fluoro-5-(trifluoromethyl)benzamide] was less than 500 nM; that for `CC(C)[C@@H](NC(=O)c1cccc(C(F)(F)F)c1)C(=O)N1CCC2(CC1)C(=O)N(C)C(=O)N2c1ccc2[nH]ncc2c1` [Example 59, (R)—N-(1-(1-(1H-Indazol-5-yl)-3-methyl-2,4-dioxo-1,3,8-triazaspiro[4.5]decan-8-yl)-3-methyl-1-oxobutan-2-yl)-3-(trifluoromethyl)benzamide] was less than 500 nM.
`CC(C)[C@@H](NC(=O)c1cc(Cl)cc(C(F)(F)F)c1)C(=O)N1CCC2(CC1)C(=O)N(C)C(=O)N2c1ccc2[nH]ncc2c1` [Example 60, (R)—N-(1-(1-(1H-Indazol-5-yl)-3-methyl-2,4-dioxo-1,3,8-triazaspiro[4.5]decan-8-yl)-3-methyl-1-oxobutan-2-yl)-3-chloro-5-(trifluoromethyl)benzamide]: the IC50 was less than 500 nM.
The value for `Cc1ccc(C(F)(F)F)cc1C(=O)N[C@@H](C(=O)N1CCC2(CC1)C(=O)N(C)C(=O)N2c1ccc2[nH]ncc2c1)C(C)C` [Example 61, (R)—N-(1-(1-(1H-Indazol-5-yl)-3-methyl-2,4-dioxo-1,3,8-triazaspiro[4.5]decan-8-yl)-3-methyl-1-oxobutan-2-yl)-2-methyl-5-(trifluoromethyl)benzamide] was no less than 1000 nM.
Under `CC(C)[C@@H](NC(=O)c1cc(OC(F)(F)F)ccc1F)C(=O)N1CCC2(CC1)C(=O)N(C)C(=O)N2c1ccc2[nH]ncc2c1` [Example 62, (R)—N-(1-(1-(1H-Indazol-5-yl)-3-methyl-2,4-dioxo-1,3,8-triazaspiro[4.5]decan-8-yl)-3-methyl-1-oxobutan-2-yl)-2-fluoro-5-(trifluoromethoxy)benzamide] stands less than 500 nM; under `COc1ccc(F)c(C(=O)N[C@@H](C(=O)N2CCC3(CC2)C(=O)N(C)C(=O)N3c2ccc3[nH]ncc3c2)C(C)C)c1` [Example 63, (R)—N-(1-(1-(1H-Indazol-5-yl)-3-methyl-2,4-dioxo-1,3,8-triazaspiro[4.5]decan-8-yl)-3-methyl-1-oxobutan-2-yl)-2-fluoro-5-methoxybenzamide], 500 to 1000 nM.
